Data: the NIST ThermoML archive (doi:10.1016/j.fluid.2011.03.003)
Numbers after ± are expanded uncertainties. Each block holds one molecule with its values, some of them ahead of it.

Settings: Liquid, Closed cell (Static) method

vapor or sublimation pressure (337.66 K): 24.6 ± 0.09 kPa
vapor or sublimation pressure (342.61 K): 29.5 ± 0.11 kPa
vapor or sublimation pressure (347.62 K): 35.68 ± 0.13 kPa
vapor or sublimation pressure (352.67 K): 42.43 ± 0.15 kPa
vapor or sublimation pressure (357.58 K): 50.12 ± 0.18 kPa
vapor or sublimation pressure (362.57 K): 59 ± 0.2 kPa
vapor or sublimation pressure (382.65 K): 101.3 ± 0.3 kPa
SMILES: CCC(=O)OC(C)C [1-methylethyl propanoate]

vapor or sublimation pressure (355.15 K): 101.3 ± 1.2 kPa
SMILES: CC(C)O [propan-2-ol]

vapor or sublimation pressure (413.58 K): 101.3 ± 1.2 kPa
SMILES: CCC(=O)O [propanoic acid]
